Results as given in patent US6979690B2, “Oxo or oxy-pyridine compounds as 5-HT4 receptor modulators” (Pfizer Inc., priority 2002, dated 2005).

Row | Compound | melting point [°C]
1 | CCCCN1CCC(CCC(=O)c2cc(Cl)c(N)nc2OC)CC1 [Example 10, 1-[6-Amino-5-chloro-2-(methoxy)-3-pyridinyl]-3-(1-butyl-4-piperidinyl)-1-propanone] | 86 to 87
2 | COc1nc(N)c(Cl)cc1C(=O)CCC1CCN(CC(C)C)CC1 [Example 14, 1-(6-Amino-5-chloro-2-methoxy-3-pyridinyl)-3-(1-isobutyl-4-piperidinyl)-1-propanone] | 128
3 | COc1nc(N)c(Cl)cc1C(=O)CCC1CCN(CC(O)C(C)(C)C)CC1 (stereo not drawn) [Example 107, 1-(6-Amino-5-chloro-2-methoxypyridin-3-yl)-3-[1-(2-hydroxy-3,3-dimethylbutyl)piperidine-4-yl]propan-1-one] | 134
4 | COc1nc(N)ccc1C(=O)CCC1CCN(CC2CCCCC2)CC1 [Example 16, 1-(6-Amino-2-methoxy-3-pyridinyl)-3-[1-(cyclohexylmethyl)-4-piperidinyl]-1-propanone] | 73.2
5 | CC(C)(C)OC(=O)CN1CCC(CNC(=O)c2cc(Cl)c(N)[nH]c2=O)CC1 [Example 8, 1,1-Dimethylethyl [4-({[(6-amino-5-chloro-2-oxo-1,2-dihydro-3-pyridinyl)carbonyl]amino}methyl)-1-piperidinyl]acetate] | 200 to 203
6 | CCCCN1CCC(CCC(=O)c2ccc(N)nc2OC)CC1 [Example 12, 1-(6-Amino-2-methoxy-3-pyridinyl)-3-(1-butyl-4-piperidinyl)-1-propanone] | 85 to 89
7 | CC(C)CN1CCC(CCC(=O)c2cc(Cl)c(N)[nH]c2=O)CC1 [Example 15, 6-Amino-5-chloro-3-[3-(1-isobutyl-4-piperidinyl)propanoyl]-2(1H)-pyridinone] | 175
8 | CC(C)CN1CCC(CNC(=O)c2cc(Cl)c(N)[nH]c2=O)CC1 [Example 6, 6-Amino-5-chloro-N-{[1-(2-methylpropyl)-4-piperidinyl]methyl}-2-oxo-1,2-dihydro-3-pyridinecarboxamide] | 128 to 133
9 | COc1nc(N)c(Cl)cc1C(=O)CCC1CCN(CC(C)(C)O)CC1 [Example 109, 1-(6-Amino-5-chloro-2-methoxypyridin-3-yl)-3-[1-(2-hydroxy-2-methylpropyl)piperidine-4-yl]propan-1-one] | 108.1
10 | CCOC(=O)CN1CCC(CNC(=O)c2cc(Cl)c(N)[nH]c2=O)CC1 [Example 7, Ethyl [4-({[(6-amino-5-chloro-2-oxo-1,2-dihydro-3-pyridinyl)carbonyl]amino}methyl)-1-piperidinyl]acetate] | 162 to 164

Now from value to compound:

Row | melting point [°C] | Compound
11 | 164.3 | Nc1[nH]c(=O)c(C(=O)CCC2CCN(CC3CCCCC3)CC2)cc1Cl [Example 106, 6-Amino-5-chloro-3-{3-[1-(cyclohexylmethyl)piperidine-4-yl]propanoyl}pyridin-2(1H)-one]
12 | 131 to 135 | CC(C)CCN1CCC(CNC(=O)c2cc(Cl)c(N)[nH]c2=O)CC1 [Example 5, 6-Amino-5-chloro-N-{[1-(3-methylbutyl)-4-piperidinyl]methyl}-2-oxo-1,2-dihydro-3-pyridinecarboxamide]
13 | 136 to 140 | CCN1CCC(CNC(=O)c2cc(Cl)c(N)[nH]c2=O)CC1 [Example 1, 6-Amino-5-chloro-N-[(1-ethyl-4-piperidinyl)methyl]-2-oxo-1,2-dihydro-3-pyridinecarboxamide]
14 | 211.3 | CC(C)(C)C(O)CN1CCC(CCC(=O)c2cc(Cl)c(N)[nH]c2=O)CC1 (stereo not drawn) [Example 108, 6-Amino-5-chloro-3-{3-[1-(2-hydroxy-3,3-dimethylbutyl)-piperidine-4-yl]propanoyl}pyridin-2(1H)-one]
15 | 230.6 | COc1nc(N)c(Cl)cc1C(=O)CCC1CCNCC1.Cl
